The results in this text go back to ChEMBL document CHEMBL1129544, “A structure-activity relationship study of novel phenylacetamides which are sodium channel blockers” (J Med Chem, 1996).

Chain of Sodium channel protein type 2 subunit alpha (P04775 whole entry): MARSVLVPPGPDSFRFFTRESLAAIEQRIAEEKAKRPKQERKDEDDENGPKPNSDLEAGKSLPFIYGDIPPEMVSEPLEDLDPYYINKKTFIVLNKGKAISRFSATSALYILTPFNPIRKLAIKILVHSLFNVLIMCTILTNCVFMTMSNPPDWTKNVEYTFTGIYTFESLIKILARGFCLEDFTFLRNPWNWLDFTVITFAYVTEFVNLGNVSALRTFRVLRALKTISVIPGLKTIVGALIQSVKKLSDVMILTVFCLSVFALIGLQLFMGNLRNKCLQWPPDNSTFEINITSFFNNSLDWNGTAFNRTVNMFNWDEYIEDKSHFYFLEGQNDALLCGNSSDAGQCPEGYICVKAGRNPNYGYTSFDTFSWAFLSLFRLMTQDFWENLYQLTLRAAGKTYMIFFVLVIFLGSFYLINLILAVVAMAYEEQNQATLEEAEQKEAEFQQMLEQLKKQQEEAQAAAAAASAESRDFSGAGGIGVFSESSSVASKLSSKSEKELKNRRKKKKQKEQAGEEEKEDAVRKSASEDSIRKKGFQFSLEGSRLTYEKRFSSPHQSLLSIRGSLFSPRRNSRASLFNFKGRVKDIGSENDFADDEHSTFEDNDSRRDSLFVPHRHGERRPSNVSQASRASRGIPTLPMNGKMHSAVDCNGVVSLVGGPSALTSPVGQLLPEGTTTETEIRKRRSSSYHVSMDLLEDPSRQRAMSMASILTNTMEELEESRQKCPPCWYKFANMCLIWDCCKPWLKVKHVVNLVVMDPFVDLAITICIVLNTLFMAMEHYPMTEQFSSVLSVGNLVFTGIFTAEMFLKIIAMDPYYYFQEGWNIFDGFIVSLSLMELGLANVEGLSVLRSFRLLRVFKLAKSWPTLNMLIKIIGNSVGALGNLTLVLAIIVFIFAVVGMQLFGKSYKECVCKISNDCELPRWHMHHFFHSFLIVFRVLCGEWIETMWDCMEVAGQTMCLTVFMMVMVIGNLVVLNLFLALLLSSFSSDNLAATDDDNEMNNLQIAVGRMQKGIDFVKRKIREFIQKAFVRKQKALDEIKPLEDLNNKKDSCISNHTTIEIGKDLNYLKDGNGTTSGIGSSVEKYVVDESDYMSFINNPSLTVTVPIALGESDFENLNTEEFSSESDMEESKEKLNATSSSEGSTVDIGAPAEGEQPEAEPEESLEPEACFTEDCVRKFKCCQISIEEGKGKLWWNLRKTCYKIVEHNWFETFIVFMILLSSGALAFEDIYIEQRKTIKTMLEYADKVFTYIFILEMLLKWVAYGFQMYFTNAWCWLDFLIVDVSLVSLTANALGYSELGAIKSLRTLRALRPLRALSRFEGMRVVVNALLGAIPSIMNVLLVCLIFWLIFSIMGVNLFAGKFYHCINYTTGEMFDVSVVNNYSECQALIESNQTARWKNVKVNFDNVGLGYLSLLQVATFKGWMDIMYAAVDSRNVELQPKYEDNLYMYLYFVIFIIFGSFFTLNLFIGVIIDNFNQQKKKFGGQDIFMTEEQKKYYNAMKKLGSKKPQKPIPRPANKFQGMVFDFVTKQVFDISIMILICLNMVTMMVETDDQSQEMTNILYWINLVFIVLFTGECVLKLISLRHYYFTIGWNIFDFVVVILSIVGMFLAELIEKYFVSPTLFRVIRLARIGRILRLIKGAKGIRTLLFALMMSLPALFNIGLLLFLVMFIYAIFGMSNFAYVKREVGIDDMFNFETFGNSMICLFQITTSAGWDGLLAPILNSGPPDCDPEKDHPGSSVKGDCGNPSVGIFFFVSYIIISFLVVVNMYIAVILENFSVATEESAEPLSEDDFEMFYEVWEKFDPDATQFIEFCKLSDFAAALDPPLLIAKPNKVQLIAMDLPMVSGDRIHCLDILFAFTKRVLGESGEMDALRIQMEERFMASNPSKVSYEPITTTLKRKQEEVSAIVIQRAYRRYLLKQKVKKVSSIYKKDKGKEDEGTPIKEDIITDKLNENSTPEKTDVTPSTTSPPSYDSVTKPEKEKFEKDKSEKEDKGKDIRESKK

The test concerns the target Sodium channel protein type 2 subunit alpha (Rattus norvegicus, UniProt P04775). In words: Inhibitory activity against type IIA sodium channel in CNaIIA-1 cell line expressed in CHO cells. The class given is cell-based.
`CN(C)CCCN(C)C(=O)C(c1ccccc1)c1ccccc1` came in with an IC50 above 200 µM.
`O=C(NCCCN1CCOCC1)C(c1ccccc1)c1ccccc1` yielded an IC50 of 6.5 µM.
Consider `O=C(NCCCN1CCC(Cc2ccccc2)CC1)C(c1ccccc1)c1ccccc1`, for which the half-inhibitory concentration (IC50) was determined as 0.6 µM.
Consider `CN1CCN(CCCNC(=O)C(c2ccccc2)c2ccccc2)CC1`, for which the IC50 was above 200 µM.
With `O=C(NCCCN1CCCCC1)C(c1ccccc1)c1ccccc1`, the half-maximal inhibitory concentration (IC50) came to 5.3 µM.
As for `NCCCNC(=O)C(c1ccccc1)c1ccccc1`, the figure is 40 µM; as for `O=C(NCCCN1CCC(n2c(=O)[nH]c3ccccc32)CC1)C(c1ccccc1)c1ccccc1`, 0.72 µM.
Molecule `O=C(NCCCN1CCN(Cc2ccccc2)CC1)C(c1ccccc1)c1ccccc1` had an IC50 of 0.7 µM.
The molecule `CC(CNC(=O)C(c1ccccc1)c1ccccc1)CN1CCC(c2ccccc2)CC1` (stereo not drawn) had a 50% inhibitory concentration (IC50) of 1.5 µM.
The same measure for `O=C(NCCCN1CCC(c2ccccc2)CC1)C(c1ccccc1)c1ccccc1`: 1.1 µM; for `CN(CCCNC(=O)C(c1ccccc1)c1ccccc1)Cc1ccccc1`: 1.2 µM; for `CN(C)CCCNC(=O)C(c1ccccc1)c1ccccc1`: 20 µM.
`CC1CCC(C)N1CCCNC(=O)C(c1ccccc1)c1ccccc1` (stereo not drawn): the 50% inhibitory concentration (IC50) worked out at 4.6 µM.
For the molecule `COc1ccccc1N1CCN(CCCNC(=O)C(c2ccccc2)c2ccccc2)CC1`, the half-inhibitory concentration (IC50) turned out to be 1.2 µM.
`O=C(NCCCN1CCC(O)(c2ccccc2)CC1)C(c1ccccc1)c1ccccc1`: the IC50 worked out at 2.2 µM.
The same measure for `O=C(NCCCN1CCC(Oc2ccccc2)CC1)C(c1ccccc1)c1ccccc1`: 1.4 µM; for `O=C(NCCCCN1CCCCC1)C(c1ccccc1)c1ccccc1`: 10 µM; for `O=C(NCCN1CCCCC1)C(c1ccccc1)c1ccccc1`: 7.2 µM.
As for `CN1CCCC1CCNC(=O)C(c1ccccc1)c1ccccc1` (stereo not drawn), the figure is 32 µM; as for `CC1CN(CCCNC(=O)C(c2ccccc2)c2ccccc2)CC(C)O1` (stereo not drawn), 2.7 µM.
Take `CCN(CC)CCCNC(=O)C(c1ccccc1)c1ccccc1`: the IC50 amounted to 4.4 µM.
`O=C(NC1CN2CCC1CC2)C(c1ccccc1)c1ccccc1` (stereo not drawn) had a 50% inhibitory concentration (IC50) of 95 µM.
With `O=c1[nH]c2ccccc2n1C1CCN(CCCC(c2ccc(F)cc2)c2ccc(F)cc2)CC1` [PIMOZIDE], the IC50 was determined as 0.34 µM.
